Results on 19 molecules are retold here after patent publication US10239849B2 (Merck Sharp & Dohme Corp., priority 2015, dated 2019).

Assay [1] concerns the target T1, glutathione-S-transferase (GST) tagged LXRbeta LBD (ligand binding domain) (Homo sapiens, UniProt P55055).
T1 construct: purchased Invitrogen pv4658.pps
T1 sequence (P55055 222-460 limits assumed): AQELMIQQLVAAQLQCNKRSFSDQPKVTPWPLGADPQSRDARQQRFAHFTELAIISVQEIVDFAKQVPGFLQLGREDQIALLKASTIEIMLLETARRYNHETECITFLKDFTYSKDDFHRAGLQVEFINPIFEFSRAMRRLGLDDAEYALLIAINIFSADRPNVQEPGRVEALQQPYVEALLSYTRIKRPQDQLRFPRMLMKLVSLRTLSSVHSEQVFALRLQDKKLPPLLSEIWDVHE
As to the kind of experiment: LanthaScreen TR-FRET Liver X Receptor Coactivator Assay, LXR beta-LBD. Type of assay: biochemical. As to conditions: for Emax: efficacy in relation to reference dual agonist T1317, read-out: LXR beta activity at max dose (%) (Emax); for pEC50: potency (Inflection Point) of co-activator recruitment, TR-FRET, read-out: LXR beta IP. The protocol: (§1) While running the LanthaScreen™ TR-FRET Liver X Receptor Coactivator Assay, LXR alpha-LBD or LXR beta-LBD was added to ligand test compounds followed by addition of a mixture of a fluorescein-labelled coactivator peptide and terbium-conjugated anti-GST antibody. After an incubation period at room temperature, TR-FRET (time-resolved fluorescence resonance energy transfer) was measured using a filter-based instrument capable of TR-FRET, e.g. PerkinElmer Envision.
In general terms: TR-FRET usually uses a lanthanide donor and a delayed reading to cut background.

Assay [2] concerns the target T2, glutathione-S-transferase (GST) tagged LXRalpha LBD (ligand binding domain) (Homo sapiens, UniProt Q13133).
T2 construct: purchased Invitrogen pv4655
T2 sequence (Q13133 209-447 limits assumed): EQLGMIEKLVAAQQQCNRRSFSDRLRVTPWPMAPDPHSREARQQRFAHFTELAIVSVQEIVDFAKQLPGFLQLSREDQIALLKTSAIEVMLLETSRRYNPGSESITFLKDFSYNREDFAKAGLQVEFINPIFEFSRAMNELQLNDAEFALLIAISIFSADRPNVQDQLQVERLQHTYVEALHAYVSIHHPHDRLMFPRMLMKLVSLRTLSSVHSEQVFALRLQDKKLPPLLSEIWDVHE
The assay can be described thus: LanthaScreen TR-FRET Liver X Receptor Coactivator Assay, LXR alpha-LBD. Type of assay: biochemical. The note with it: for Emax: efficacy in relation to reference dual agonist T1317, read-out: LXR alpha activity at max dose (%) (Emax); for LXR alpha IP (nM) / pEC50: potency (Inflection Point) of co-activator recruitment, TR-FRET; for pEC50: read-out: LXR alpha IP. The protocol: as §1

SMILES strings stand for the structures. pEC50: −log10 of the molar value.

One may read the Emax as the size of the effect at its maximum, as opposed to the concentration needed. Consider `CN(C)C(=O)c1ccc(-c2ccc(N3CCN(C(=O)c4ccccc4Cl)CC3)cc2)cc1Cl` [Example 4-15, 3-chloro-4′-{4-[(2-chlorophenyl)carbonyl]piperazin-1-yl}-N,N-dimethylbiphenyl-4-carboxamide], for which, in assay [1], the maximal effect (Emax) was determined as 85% and the pEC50 is 5.78. Also, in assay [2], the Emax was 16% and the “LXR alpha IP (nM)” value is reported as “No IP”.

Consider `CN(C)C(=O)c1ccc(-c2cnc(N3CCN(C(=O)c4c(F)cccc4F)CC3)c(C#N)c2)cc1Cl` [Example 2-1, 2-chloro-4-(5-cyano-6-{4-[(2,6-difluorophenyl)carbonyl]piperazin-1-yl}pyridin-3-yl)-N,N-dimethylbenzamide], for which, in assay [1], the maximal effect (Emax) turned out to be 40% and the pEC50 is 6.67. In assay [2], the Emax was 23% and the pEC50 was 5.05.

In the case of `CN(C)C(=O)c1ccc(-c2cnc(N3CCN(C(=O)C(C)(C)c4ccccc4)CC3)c(C#N)c2)cc1Cl` [Example 2-18, 2-chloro-4-{5-cyano-6-[4-(2-methyl-2-phenylpropanoyl)piperazin-1-yl]pyridin-3-yl}-N,N-dimethylbenzamide], the maximal effect (Emax) in assay [1] turned out to be 99%; in assay [2], 43%. In addition, the figures for the pEC50 in assay [1] and in assay [2] were 7.82 and 4.79, respectively.

Regarding `CN(C)C(=O)c1ccc(-c2cnc(N3CCN(C(=O)C(C)(C)C)CC3)c(C#N)c2)cc1Cl` [Example 2-3, 2-chloro-4-{5-cyano-6-[4-(2,2-dimethylpropanoyl)piperazin-1-yl]pyridin-3-yl}-N,N-dimethylbenzamide], in assay [1], the maximal effect (Emax) amounted to 105% and the pEC50 is 7.25. In assay [2], the maximal response (Emax) came out at 67% and the pEC50 was 5.32.

On to `CN(C)C(=O)c1ccc(-c2ccc(N3CCN(C(=O)c4c(F)cccc4Cl)CC3)cc2)cc1Cl` [Example 4-19, 3-chloro-4′-{4-[(2-chloro-6-fluorophenyl)carbonyl]piperazin-1-yl}-N,N-dimethylbiphenyl-4-carboxamide], for which, in assay [1], the maximal effect (Emax) amounted to 93% and the pEC50 was 5.90. In assay [2], the maximal effect (Emax) was 20% and the pEC50 was 4.77.

Take `CN(C)C(=O)c1c(Cl)cc(-c2cnc(N3CCN(C(=O)[C@](O)(c4ccccc4)C(F)(F)F)CC3)c(C#N)c2)cc1Cl` [Example 7-1, 2,6-dichloro-4-(5-cyano-6-{4-[(2R)-3,3,3-trifluoro-2-hydroxy-2-phenylpropanoyl]piperazin-1-yl}pyridin-3-yl)-N,N-dimethylbenzamide]: the Emax is 73% in assay [1] and 53% in assay [2]. The pEC50 in assay [1] was 8.52; in assay [2], 6.73.

Turning to `CN(C)C(=O)c1ccc(-c2ccc(N3CCN(C(=O)c4ccccc4C(F)(F)F)CC3)cc2)cc1Cl` [Example 4-17, 3-chloro-N,N-dimethyl-4′-(4-{[2-(trifluoromethyl)phenyl]carbonyl}piperazin-1-yl)biphenyl-4-carboxamide], in assay [1], the Emax worked out at 80% and the pEC50 is 5.86. Further, in assay [2], the Emax was 9% and the “LXR alpha IP (nM)” value was “No IP”.

In the case of `CCN(C)C(=O)c1ccc(-c2cnc(N3CCN(C(=O)OC(C)(C)C)CC3)c(C#N)c2)cc1Cl` [Example 5-5, tert-butyl 4-(5-{3-chloro-4-[ethyl(methyl)carbamoyl]phenyl}-3-cyanopyridin-2-yl)piperazine-1-carboxylate], in assay [1], the maximal response (Emax) turned out to be 76% and the pEC50 is 7.06. Besides, in assay [2], the Emax is 54% and the pEC50 was 5.57.

On to `CN(C)C(=O)c1ccc(-c2cnc(N3CCN(C(=O)OC(C)(C)C)CC3Cc3ccccc3)c(C#N)c2)cc1Cl` (stereo not shown) [Example 8-13, tert-butyl 3-benzyl-4-{5-[3-chloro-4-(dimethylcarbamoyl)phenyl]-3-cyanopyridin-2-yl}piperazine-1-carboxylate], for which, in assay [1], the maximal effect (Emax) was determined as 120% and the pEC50 was 7.74. For the same molecule, in assay [2], the Emax stood at 78% and the pEC50 is 6.27.

For `CN(C)C(=O)c1ccc(-c2cnc(N3CCN(S(=O)(=O)C(F)F)CC3)c(C#N)c2)cc1Cl` [Example 1-3, 2-chloro-4-(5-cyano-6-{4-[(difluoromethyl)sulfonyl]piperazin-1-yl}pyridin-3-yl)-N,N-dimethylbenzamide], in assay [1], the Emax worked out at 93% and the pEC50 is 6.70. Moreover, in assay [2], the maximum response (Emax) turned out to be 52% and the pEC50 was 4.98.

Take `CN(C)C(=O)c1c(Cl)cc(-c2cnc(N3CC4CCC(C3)N4C(=O)OC(C)(C)C)c(C#N)c2)cc1Cl` [Example 7-3, tert-butyl 3-(3-cyano-5-(3,5-dichloro-4-(dimethylcarbamoyl)phenyl)pyridin-2-yl)-3,8-diazabicyclo[3.2.1]octane-8-carboxylate]: in assay [1], the Emax was determined as 67% and the pEC50 is 7.89. Besides, in assay [2], the Emax was 21% and the pEC50 is 6.82.

As to `CN(C)C(=O)c1ccc(-c2ccc(N3CC4CCC(C3)N4C(=O)OC(C)(C)C)cc2)cc1Cl` [Example 8-3, tert-butyl 3-[3′-chloro-4′-(dimethylcarbamoyl)biphenyl-4-yl]-3,8-diazabicyclo[3.2.1]octane-8-carboxylate], in assay [1], the maximum response (Emax) was 87% and the pEC50 was 6.72. In addition, in assay [2], the Emax turned out to be 64% and the pEC50 is 4.93.

Consider `Cc1nc(CCN(C)C(=O)c2ccc(-c3cnc(N4CCN(C(=O)OC(C)(C)C)CC4)c(C#N)c3)cc2Cl)no1` [Example 5-28, tert-butyl 4-[5-(3-chloro-4-{methyl[2-(5-methyl-1,2,4-oxadiazol-3-yl)ethyl]carbamoyl}phenyl)-3-cyanopyridin-2-yl]piperazine-1-carboxylate], for which, in assay [1], the Emax stood at 84% and the pEC50 is 6.79. Also, in assay [2], the maximal response (Emax) is 71% and the pEC50 was 5.43.

Consider `CON(C)C(=O)c1ccc(-c2cnc(N3CCN(C(=O)OC(C)(C)C)CC3)c(C#N)c2)cc1Cl` [Example 5-7, tert-butyl 4-(5-{3-chloro-4-[methoxy(methyl)carbamoyl]phenyl}-3-cyanopyridin-2-yl)piperazine-1-carboxylate], for which, in assay [1], the maximal response (Emax) is 69% and the pEC50 is 7.09. For the same molecule, in assay [2], the Emax was determined as 39% and the pEC50 was 5.58.

Regarding `CC(C)(C)OC(=O)N1CCN(c2ncc(-c3ccc(C(=O)N4CCOCC4)c(Cl)c3)cc2C#N)CC1` [Example 5-14, tert-butyl 4-{5-[3-chloro-4-(morpholin-4-ylcarbonyl)phenyl]-3-cyanopyridin-2-yl}piperazine-1-carboxylate], in assay [1], the Emax is 63% and the pEC50 is 6.48. Further, in assay [2], the Emax is 38% and the pEC50 was 4.90.

In the case of `CN(C)C(=O)c1ccc(-c2cnc(N3CCN(C(=O)C4CCCCO4)CC3)c(C#N)c2)cc1Cl` (stereo not shown) [Example 2-6, 2-chloro-4-{5-cyano-6-[4-(tetrahydro-2H-pyran-2-ylcarbonyl)piperazin-1-yl]pyridin-3-yl}-N,N-dimethylbenzamide], in assay [1], the maximal effect (Emax) was determined as 49% and the pEC50 was 5.81. Moreover, in assay [2], the maximal effect (Emax) was 16% and the “LXR alpha IP (nM)” value is given as “No IP”.

Consider `CN(C)C(=O)c1ccc(-c2cnc(N3CCN(C(=O)OCc4ccccc4)CC3)c(C#N)c2)cc1Cl` [Example 3-14, benzyl 4-{5-[3-chloro-4-(dimethylcarbamoyl)phenyl]-3-cyanopyridin-2-yl}piperazine-1-carboxylate], for which the Emax in assay [1] was 74%; in assay [2], 26%. Moreover, the pEC50 was 7.24 in assay [1] and 5.32 in assay [2].

Consider `CC(C)(C)OC(=O)N1CCN(c2ncc(-c3ccc(C(=O)N4CC[C@@H](O)C4)c(Cl)c3)cc2C#N)CC1` [Example 5-12, tert-butyl 4-[5-(3-chloro-4-{[(3R)-3-hydroxypyrrolidin-1-yl]carbonyl}phenyl)-3-cyanopyridin-2-yl]piperazine-1-carboxylate], for which, in assay [1], the Emax stood at 60% and the pEC50 is 6.32. Also, in assay [2], the maximal effect (Emax) amounted to 37% and the pEC50 is 5.07.

`CN(CC(O)CO)C(=O)c1ccc(-c2cnc(N3CCN(C(=O)OC(C)(C)C)CC3)c(C#N)c2)cc1Cl` (stereo not shown) [Example 5-18, tert-butyl 4-(5-{3-chloro-4-[(2,3-dihydroxypropyl) (methyl)carbamoyl]phenyl}-3-cyanopyridin-2-yl)piperazine-1-carboxylate]: in assay [1], the Emax is 70% and the pEC50 was 6.52. For the same molecule, in assay [2], the Emax was 40% and the pEC50 was 5.07.
